{"source": "patent US20060122197A1", "about": "“Amido compounds and their use as pharmaceuticals” (priority 2004, published 2006)", "origin": "cited, not measured here", "target": "T1, 11βHSD1 in the eye (Homo sapiens, UniProt P28845)", "T1 construct": "host or cells: eye of healthy volunteers (in vivo)", "T1 sequence (P28845 whole entry)": "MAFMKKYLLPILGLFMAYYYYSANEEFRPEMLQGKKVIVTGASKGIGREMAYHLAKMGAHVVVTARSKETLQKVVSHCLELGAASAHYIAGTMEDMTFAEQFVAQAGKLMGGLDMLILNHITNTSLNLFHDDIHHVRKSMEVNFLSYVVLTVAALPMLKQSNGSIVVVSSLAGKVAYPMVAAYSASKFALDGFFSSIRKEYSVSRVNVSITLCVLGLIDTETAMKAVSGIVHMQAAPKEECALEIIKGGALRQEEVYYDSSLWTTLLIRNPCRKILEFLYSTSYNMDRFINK", "settings": "healthy volunteers; after seven days of carbenoxolone treatment", "data": [{"smiles": "CC1(C)[C@@H](OC(=O)CCC(=O)O)CC[C@]2(C)[C@H]3C(=O)C=C4[C@@H]5C[C@@](C)(C(=O)O)CC[C@]5(C)CC[C@@]4(C)[C@]3(C)CC[C@@H]12", "note": "[carbenoxolone]", "values": [{"measurement": "IOP was reduced by", "value": 18, "unit": "%"}]}]}
